The text below walks through data of patent publication US20260355199A1, “COMPOSITIONS AND METHODS FOR TREATING OR PREVENTING NONALCOHOLIC STEATOHEPATITIS (NASH), ANOREXIA, DEPRESSION, ENDOMETRIOSIS, AND OTHER DISEASES OR DISORDERS” (priority 2022, published 2026).

The test system of one experiment is TET2. Briefly: TET2 protein stability (cycloheximide) in MDMs. In kind it is cell-based, human. To be noted: 10 μM, with cycloheximide. As for the experimental part: For TET protein stability assay of MDMs, cells in 24-well plates were incubated with vehicle or Bobcat339 at a final concentration of 10 μM for 3 h, followed by addition of cycloheximide (CHX, Cell Signaling, 2112) at a final concentration of 50 μg/mL. Proteins were harvested at 0, 2, 4, and 6 hours after addition of CHX.

A further experiment is described as follows: Plasma corticosterone. In kind it is in vivo, mouse. To be noted: ABA mice. Here is the method: For corticosterone, blood samples were obtained via retroorbital bleeding between 19:00 and 20:00. For alanine transaminase, aspartate transaminase and bilirubin, blood samples were collected by cardiac puncture of terminally anesthetized animals. All blood samples were collected in EDTA tubes (Microtainer with K2EDTA, BD, 365974). The tubes were centrifuged at 2,000×g at 4 °C for 20 min, and plasma was collected and stored at −80 °C until use. Plasma corticosterone levels were measured using Corticosterone ELISA kit (Enzo, ADI-900-097) according to the manufacturer's instructions. Kits used to measure alanine transaminase (EALT-100) and aspartate transaminase (EASTR-100) were purchased from Bioassay Systems. The bilirubin assay kit (MAK126) was purchased from Sigma Aldrich.

In another experiment the test system is let-7a. As to the kind of experiment: let-7a level in mouse peritoneal macrophages. In kind it is cell-based. To be noted: 10 μM, 48 h. Here is the method: For cultured mouse peritoneal macrophages, cells were primed with 30 ng/ml of TGF-β1 (R&D Systems, 7666-MB0-005) for 48 h (to increase TET3 expression) before Bobcat339 treatment. Bobcat339 (or DMSO) was added at a final concentration of 10 μM, followed by RNA and protein extraction at time points indicated in the figure legends.
For let-7a qPCR, 10 ng of total RNA was reverse transcribed to cDNA in a reaction volume of 10 μl using miRCURY LNA RT Kit (QIAGEN, 339340). Quantitative real-time PCR reactions were carried out using miRCURY LNA SYBR Green PCR Kit (QIAGEN, 339346) and a let-7a-specific primer (Has-Let-7a-5p miRCURY LNA miRNA PCR Assay, QIAGEN, 339306/YP00205727) in a Bio-Rad iCycler. Gene expression levels were normalized against U6 (U6 snRNA v2 miRURY LNA miRNA PCR Assay, QIAGEN, 339306/YPO2119464, QIAGEN).

The next experiment has as its system TGF-β1, IL-1β, and IL-6. As to the kind of experiment: TGF-β1, IL-1β and IL-6 expression in human MDMs. In kind it is cell-based. To be noted: TGF-β1-treated MDMs. From the text:
Next, the studies examined effects of TET3 knockdown on expression of TGF-β1, IL-1β, and IL-6 in human MDMs. TGF-β1 has been mechanistically linked to the pathogenesis NSCLC, endometriosis, and NASH (Saito et al., 2018, Int J Mol Sci, 19; Young et al., 2017, Hum Reprod Update, 23:548-559; Cai et al., 2020, Cell Metab, 31:406-421; Baba et al., 2022, Front Pharmacol, 13:791272). It is also an important factor in the conditioned media responsible for inducing TET3 overexpression (FIG. 24H, FIG. 24J, and FIG. 24K through FIG. 24M). Therefore, MDMs were treated with TGF-β1 to mimic microenvironment-induced TET3 overexpression, followed by siRNA transfection and gene expression analyses. […] ELISA was not used to measure TGF-β1 because the transfection experiments were performed in the presence of exogenous TGF-β1. […]
Proinflammatory activation of peritoneal macrophages and MDMs was achieved by treatment with a combination of 10 ng/mL of LPS (Invitrogen, 00-4976-93) and 20 ng/mL of IFN-γ (R&D Systems, 485-MI-100). IL-1β and IL-6 protein levels in the supernatant of cultured mouse peritoneal macrophages were measured using ELISA kits (R&D Systems, MLB00C and M6000B-1). […]
IL-1β protein level of cell lysates and IL-6 protein level of cell supernatants were determined using the kits (Elabscience, E-EL-H0149c and E-EL-H6165, respectively) according to the manufacturer's protocols. […]

For the compound `Nc1nc(=O)n(-c2cccc(-c3ccccc3)c2)cc1Cl` [Bobcat339, 4-Amino-1-[1,1′-biphenyl]-3-yl-5-chloro-2(1H)-pyrimidinone], the TET2 protein stability entry in the experiment on TET2 is recorded as “destabilized both proteins”. Further, the plasma cortisol levels entry in “Plasma corticosterone” is given as “reduced plasma cortisol levels”. The let-7a level result in the experiment with let-7a is “higher levels of let-7a”. The “TGF-β1, IL-1β, and IL-6 expression” value with TGF-β1, IL-1β, and IL-6 is on record as “able to recapitulate these effects on all three factors”.
